Data from patent US20060128763A1 (priority 2003, published 2006).

Tests used:
physchem = settings: water, thermodynamic from solid
Experimental: The measurement was performed according to the procedure described in the Korean Pharmacopoeia (Korean Ministry of Health and Welfare, General principle of medical supplies, Vol. 1, Clause 29, the 7th revision) which comprises the steps of dissolving each compound in distilled water to saturation, analyzing the saturated solution with liquid chromatography, and measuring the dissolved amount of each compound based on the amount of amlodipine.

[1] = DSC scan, FIGS. 3 and 4

| SMILES | solubility (physchem) | thermodynamic stability (DSC absorption peak temperature compared with the crystalline form) [1] |
| --- | --- | --- |
| CCOC(=O)C1=C(COCCN)NC(C)=C(C(=O)OC)C1c1ccccc1Cl (centres unmarked) [Crystalline amlodipine besylate, amlodipine benzenesulfonate] | 2350 µg/mL | – |
| CC1(C)[C@@H]2CC[C@@]1(CS(=O)(=O)O)C(=O)C2.CCOC(=O)C1=C(COCCN)NC(C)=C(C(=O)OC)C1c1ccccc1Cl (centres unmarked) [Amorphous amlodipine camsylate, amorphous amlodipine camsylate] | – | sufficient thermodynamic stability |
